Data set [1] concerns skin blood flow. In words: Continuous cathodal iontophoresis on the forearm of healthy volunteers, skin blood flow by laser Doppler imaging. It counts as in vivo, human. Particulars: 250 μM treprostinil, cathodal iontophoresis 20 minutes.
Protocol: A clinical study then included 20 healthy volunteers. These subjects received 3 concentrations of treprostinil via continuous cathodal iontophoresis on the forearm for 20 minutes and a control iontophoresis of 0.9% NaCl. Skin blood flow was quantified by laser Doppler imaging.
This effect is expressed as cutaneous vascular conductance (CVC; percentage of the baseline) recorded up to 24 hours.
To implement iontophoresis on the forearm, several iontophoresis chambers containing treprostinil liquid solution in contact with a cathode, and an anode at a distance of about 15 cm from the cathode, are placed on the inside of the forearm of each patient. […] Treprostinil liquid solution was in direct contact with the subject's skin.
Data set [2] has as its system skin blood flow. Particulars: rat.
Data set [3] has as its system skin blood flow. Conditions: 12 scleroderma patients, 250 μM, direct current, 240 mC/cm^2.
Data set [4] has as its system blood flow in the pad of the finger. Briefly: Iontophoresis of treprostinil impregnating a primary dressing on the finger pad, laser speckle contrast imaging of blood flow. It counts as in vivo, human.
Protocol: FIG. 3 reproduces an image obtained by laser speckle contrast imaging of blood flow in the pad of the index finger treated by iontophoresis of treprostinil impregnating a primary dressing and in the pad of the middle finger of the same hand treated by iontophoresis of 0.9% NaCl impregnating another primary dressing, in a healthy subject. The iontophoresis was carried out under the following conditions: 240 mC/cm^2, direct current. Two 7.2 cm^2 Ag—AgCl electrodes (Iogel, Iomed Inc., Salt Lake City, Utah, USA) were soaked in 1.5 ml of treprostinil or NaCl solution (double-blind).
These drug-soaked electrodes were connected to the cathode, while the anode was connected to passive electrodes attached at a distance of 10 cm. Low-voltage computer-controlled generators were used (PF 751 Perilont USB Power Supply, Perimed, Järfálla, Sweden). The voltage was recorded continuously in order to estimate the skin's resistance.
FIG. 4 reproduces an image obtained by laser speckle contrast imaging of blood flow in the pad of a ring finger treated by iontophoresis of treprostinil impregnating a primary dressing and in the pad of the middle finger of the same hand treated by iontophoresis of 0.9% NaCl, in a subject with scleroderma. The variation in blood flow is represented in same manner as in FIG. 3.
Data set [5] can be described thus: Treprostinil plasma assay (HPLC-MS/MS) after iontophoresis on forearm and fingers. Particulars: after iontophoresis for 20 minutes on the forearm and for 2 hours on the fingers. The format is in vivo, human. The procedure:
However, the fact that the patient's skin is in extended contact with an active substance is likely to involve the systemic passage of treprostinil. The Inventors thus assayed treprostinil in the plasma using high-performance liquid chromatography coupled to tandem mass spectrometry after iontophoresis for 20 minutes on the forearm and for 2 hours on the fingers.

The nature of data set [6]: Treprostinil quantification in dermal dialysate fluid (microdialysis, HPLC-MS/MS), forearm. Conditions: post-iontophoresis. The format is in vivo, human. The text has this: The use of treprostinil to impregnate a primary dressing has the advantage of making it possible to cover larger areas of skin. However, it was not obvious that the results obtained by iontophoresis of treprostinil in liquid solution form in direct contact with the patient's skin could be obtained with the embodiment in accordance with the invention.

Data set [7] can be described thus: Plasma treprostinil concentration in scleroderma patients post-iontophoresis. The format is in vivo. Particulars: human, other: cathodal iontophoresis, 250 μM, 30 minutes post-iontophoresis.
Data set [8] concerns Raynaud's attacks and ulcers. Particulars: intravenous, versus placebo; cited from earlier work.
Another data set concerns digital ulcers. Conditions: cited from earlier work.

In the case of `CCCCC[C@H](O)CC[C@@H]1[C@H]2Cc3cccc(OCC(=O)O)c3C[C@H]2C[C@H]1O` [treprostinil], the “cutaneous vascular conductance AUC80 min” value in the data set on skin blood flow [1] was 31,897±24,390 % BL·min. Moreover, in the data set on skin blood flow [2] (20 minutes of cathodal iontophoresis at 100 μA, liquid solution in direct contact with skin), the cutaneous vasodilatation result is reported as “caused cutaneous vasodilatation”. In addition, the “persistence of effect after iontophoresis is over” value in the data set with skin blood flow [2] (cathodal iontophoresis) is on record as “at least 60 minutes”. The “local toxicity, clinically and after systematic skin biopsies” value with skin blood flow [2] (in vivo) is reported as “No sign of local toxicity”. The “effect on skin blood flow absent current or with anodal current” value with skin blood flow [2] (no current or anodal current) was “no effect on skin blood flow”. In the data set with skin blood flow [3], the skin blood flow entry is given as “increase in skin blood flow” and the tolerance result is “well tolerated”. Besides, in [4] (healthy subject, index finger, 240 mC/cm^2, direct current), the “vasomotor effect on finger pad, healthy subject (FIG. 3)” value was “marked vasomotor effect”. Also, in [4] (subject with scleroderma, ring finger), the “vasomotor effect on finger pad, subject with scleroderma (FIG. 4)” value is “marked vasomotor effect”. The “systemic passage (plasma quantification)” value in [5] was “negligible systemic passage”. In addition, the “time treprostinil present in the dermis of the forearm (average)” value in data set [6] was “up to 8 hours”. Further, the concentration at 30 min in data set [7] was less than 1.8 pg/mL.
As to `CC#CCC(C)[C@H](O)/C=C/[C@@H]1[C@H]2C/C(=C/CCCC(=O)O)C[C@H]2C[C@H]1O` (stereo partly drawn) [iloprost], the “frequency of Raynaud's attacks and healing time of ulcers” value in [8] is listed as “provided an advantage”.
For `COc1ccccc1Oc1c(NS(=O)(=O)c2ccc(C(C)(C)C)cc2)nc(-c2ncccn2)nc1OCCO` [bosentan], the “risk of developing new ulcers” value in the data set with digital ulcers (RAPIDS-2 study) is “significantly reduced the risk”. In the data set with digital ulcers (in vivo), the “healing of preexisting ulcers” value is reported as “no advantage”.

The record behind these values is patent US10874856B2, “Device for treating a cutaneous ulcer” (priority 2013, dated 2020).
